Results on one compound are retold here after patent US20100240686A1, “CHEMICAL COMPOUNDS” (priority 2006, published 2010).

For this test, the target named is T1, CDK2/Cyclin E (Homo sapiens, UniProt P24941).
T1 construct: The open reading frames of CDK2 and Cyclin E were isolated by reverse transcriptase-PCR; made in house; host or cells: Spodoptera frugiperda SF21 insect cells (baculovirus co-infection, pVL1393)
The test is described as follows: in vitro kinase assay, Scintillation Proximity Assay (incorporation of [γ-33-P]-ATP into GST-Rb). The test is classed as biochemical. As to conditions: CDK2/Cyclin E partially-purified enzyme, GST-Rb substrate, 0.2 μM ATP, room temperature 60 minutes; read-out: CDK2 inhibitory activity IC50. The procedure: The compounds were tested in an in vitro kinase assay in 96 well format using Scintillation Proximity Assay (SPA—obtained from Amersham) for measuring incorporation of [γ-33-P]-Adenosine Triphosphate into a test substrate (GST-Retinoblastoma protein; GST-Rb). In each well was placed the compound to be tested (diluted in DMSO and water to correct concentrations) and in control wells either roscovitine as an inhibitor control or DMSO as a […] control.
Approximately 0.2 μl of CDK2/Cyclin E partially-purified enzyme (amount dependent on enzyme activity) diluted in 25 μl incubation buffer was added to each well then 20 μl of GST-Rb/ATP/ATP33 mixture (containing 0.5 μg GST-Rb and 0.2 μM ATP and 0.14 μCi [γ-33-P]-Adenosine Triphosphate in incubation buffer), and the resulting mixture shaken gently, then incubated at room temperature for 60 minutes. […]
The plates were sealed with Topseal-S plate sealers, left for two hours then spun at 2500 rpm, 1124×g., for 5 minutes. The plates were read on a Topcount for 30 seconds per well. […]
The open reading frames of CDK2 and Cyclin E were isolated by reverse transcriptase-PCR using HeLa cell and activated T cell mRNA as a template and cloned into the insect expression vector pVL1393 (obtained from Invitrogen 1995 catalogue number: V1392-20). […]

As to `Cc1ncc(-c2ccnc(Nc3ccc(C(=O)NCCN(C)C)c(F)c3)n2)n1C(C)C` [Example 2, N-(2-Dimethylaminoethyl)-2-fluoro-4-[[4-(2-methyl-3-propan-2-yl-imidazol-4-yl)pyrimidin-2-yl]amino]benzamide], the IC50 was determined as 3 nM.
